# Data from patent publication US20250074911A1, “MACROCYCLIC BTK INHIBITORS” (Crossfire Oncology Holding B.V., priority 2021, published 2025).
# Values joined by “and” are separate entries in the source; they are usually repeats but may differ in a detail not shown here. Equal entries are not always repeated.
# Assays:
# [1] = molecular target: full-length wt-BTK enzyme (Homo sapiens (Human), UniProt Q06187); test: Biochemical kinase assay wt-BTK (IMAP)
# Summary of the method: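 IMAP fluorescence polarization assay: 1.2 nM enzyme pre-incubated 1 h with compound at room temperature, then 50 nM fluorescein-labeled MBP-derived peptide and 4 μM ATP added. Reaction ran 2 h at room temperature in the dark before quenching with IMAP binding solution.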
# [2] = molecular target: full-length BTK C481S enzyme (Homo sapiens (Human), UniProt Q06187, C481S); test: Biochemical kinase assay BTK C481S (IMAP)
# Summary of the method: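 Full-length BTK C481S (1.2 nM) was pre-incubated with compound for 1 h at room temperature in the dark, then reacted with fluorescein-labelled MBP-derived peptide (50 nM) and ATP (7 μM) for 2 h. Reactions were quenched with IMAP binding solution, and IC50 values were derived from fluorescence polarization.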
# [3] = system: wt-REC-1 mantle cell lymphoma cells; test: Cell proliferation assay wt-REC-1 (ATPlite, 72 hours); type: cell-based; details: 72 h; read-out: IC50 wt-REC-1
# Summary of the method: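 Luminescent viability read over 72 h, start-of-incubation signal recorded separately to separate growth from cell death. Percentage growth referenced to compound-free 0.3% DMSO wells; IC50 from 4-parameter logistic fit.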
# REC-1 T474I cell lines = test: Cell proliferation assay REC-1 BTK T474I knock-in cells (ATPlite, 72 hours); type: cell-based; details: Homo sapiens, Rec1; 72 hours; read-out: IC50 REC-1 T474I
# Summary of the method: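 REC-1 cells carrying CRISPR knock-in mutant BTK, single-cell cloned and sequence-confirmed, were exposed to compound for 72 h and read by ATPlite luminescence. Percentage growth was calculated against the signal at the start of incubation and against untreated 0.3% DMSO wells as maximum growth.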
# wt-BTK = wt-BTK (Homo sapiens (Human), UniProt Q06187); test: Binding kinetics measurements (Surface Plasmon Resonance) on wt-BTK; details: for Kd: binding affinity by Surface Plasmon Resonance (SPR); for Tau (h) wt-BTK (Act): target residence time, SPR
# Summary of the method: (§1)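 SPR on biotinylated wild-type or mutant human BTK captured on streptavidin chips (immobilized at 4° C, assay at 22° C), buffer with 1% DMSO, 30 μl/min. Single-cycle kinetics, five injections of 3.16-316 nM compound; double-referenced sensorgrams fitted (two-state model for induced fit), duplicate ka, kd, KD geometrically averaged.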
# BTK C481S = BTK C481S (Homo sapiens (Human), UniProt Q06187, C481S); test: Binding kinetics measurements (Surface Plasmon Resonance) on BTK C481S; details: for Kd: binding affinity by Surface Plasmon Resonance (SPR); for Tau (h) BTK C418S (Act): target residence time for BTK C481S, SPR
# Summary of the method: as §1
# BTK T316A = BTK T316A (Homo sapiens (Human), UniProt Q06187, T316A); test: Binding kinetics measurements (Surface Plasmon Resonance) on BTK T316A; details: for Kd: binding affinity by Surface Plasmon Resonance (SPR); for Tau (h) BTK T316A (Act): target residence time, SPR
# Summary of the method: as §1
# BTK T474I = BTK T474I (Homo sapiens (Human), UniProt Q06187, T474I); test: Binding kinetics measurements (Surface Plasmon Resonance) on BTK T474I; details: for Kd: binding affinity by Surface Plasmon Resonance (SPR); for Tau (h) BTK T474I (Act): target residence time, SPR
# Summary of the method: as §1
# BTK T474S = BTK T474S (Homo sapiens (Human), UniProt Q06187, T474S); test: Binding kinetics measurements (Surface Plasmon Resonance) on BTK T474S; details: for residence time: SPR binding kinetics, BTK T474S, read-out: Tau (h) BTK T474S (Act), target residence time (converted); for Kd: binding affinity by Surface Plasmon Resonance (SPR)
# Summary of the method: as §1
# [4] = system: wt-TMD8 diffuse large B-cell lymphoma cells; test: Cell proliferation assay wt-TMD8 (ATPlite, 120 hours); type: cell-based; details: B-cell; wt-TMD8 cells, 120 hours, ATPlite; read-out: IC50 wt-TMD8
# Summary of the method: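 wt-TMD8 DLBCL cells, 1600 per well in RPMI-1640 with 10% FBS, rested ≥5 h then exposed to compound for 120 h at 37° C, 5% CO2. Viability read by ATPlite luminescence; percentage growth calculated relative to start-of-incubation signal and untreated 0.3% DMSO maximum growth.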
# Chain of BTK T474I (Q06187 whole entry T474I): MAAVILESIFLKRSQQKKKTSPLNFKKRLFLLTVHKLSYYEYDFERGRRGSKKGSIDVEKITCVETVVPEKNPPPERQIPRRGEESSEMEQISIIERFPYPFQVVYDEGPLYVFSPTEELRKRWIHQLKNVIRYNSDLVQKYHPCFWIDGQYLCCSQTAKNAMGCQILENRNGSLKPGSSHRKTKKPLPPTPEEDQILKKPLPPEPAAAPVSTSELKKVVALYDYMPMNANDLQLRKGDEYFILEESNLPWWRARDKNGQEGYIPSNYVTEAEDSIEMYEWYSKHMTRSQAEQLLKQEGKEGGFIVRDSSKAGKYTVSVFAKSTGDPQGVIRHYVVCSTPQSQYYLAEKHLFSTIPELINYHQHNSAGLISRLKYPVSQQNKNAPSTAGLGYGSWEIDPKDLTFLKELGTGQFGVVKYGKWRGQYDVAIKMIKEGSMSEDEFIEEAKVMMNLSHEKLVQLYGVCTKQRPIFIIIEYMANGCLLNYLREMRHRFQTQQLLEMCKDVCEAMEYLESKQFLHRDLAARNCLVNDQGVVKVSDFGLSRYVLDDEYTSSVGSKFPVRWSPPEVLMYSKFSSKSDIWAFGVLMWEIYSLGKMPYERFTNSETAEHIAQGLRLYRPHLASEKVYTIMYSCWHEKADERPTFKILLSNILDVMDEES
# Chain of BTK T316A (Q06187 whole entry T316A): as the sequence (Q06187 whole entry T474I) above, with T316A, I474T counted along it
# Chain of wt-BTK (Q06187 whole entry): as the sequence (Q06187 whole entry T474I) above, with I474T counted along it
# Chain of full-length wt-BTK enzyme (Q06187 whole entry): as the sequence (Q06187 whole entry T474I) above, with I474T counted along it
# Chain of BTK C481S (Q06187 whole entry C481S): as the sequence (Q06187 whole entry T474I) above, with I474T, C481S counted along it
# Chain of full-length BTK C481S enzyme (Q06187 whole entry C481S): as the sequence (Q06187 whole entry T474I) above, with I474T, C481S counted along it
# Chain of BTK T474S (Q06187 whole entry T474S): as the sequence (Q06187 whole entry T474I) above, with I474S counted along it
SMILES,IC50 [1] [nM],IC50 [2] [nM],IC50 [3] [nM],Kd (wt-BTK) [nM],Tau (h) wt-BTK (Act) (wt-BTK) [h],Kd (BTK C481S) [nM],Tau (h) BTK C418S (Act) (BTK C481S) [h],Kd (BTK T316A) [nM],Tau (h) BTK T316A (Act) (BTK T316A) [h],Kd (BTK T474I),residence time (BTK T474S) [h],Kd (BTK T474S) [nM],IC50 [4] [nM],Tau (h) BTK T474I (Act) (BTK T474I) [h],IC50 (REC-1 T474I cell lines) [nM]
CN1C/C=C/c2cnc(N)c3c(-c4ccc(C(=O)Nc5cc(C(F)(F)F)ccn5)cc4)nn(c23)[C@@H]2CCC[C@H](C2)NC(=O)CCCC1 [Example 20],< 5,< 5,100 to 1000,< 5,2.79,< 5,1.05,< 5,2.01,< 2 nM,2.75,< 3,< 100,,500 to 10000
COc1ccc(F)cc1C(=O)NCc1ccc(-c2nn3c4c(cnc(N)c24)/C=C/CCCC(=O)N[C@@H]2CCC[C@@H]3C2)cc1 [Example 50],< 5,< 5,100 to 1000,< 5,,< 5,,< 5,,10 to 50 nM and < 5 nM,,< 3,< 100,,500 to 10000
Nc1ncc2c3c1c(-c1ccc(C(=O)Nc4cc(C(F)(F)F)ccn4)cc1)nn3[C@@H]1CCC[C@H](C1)NC(=O)CCNCC/C=C/2 [Example 33],< 5,< 5,< 100,< 5,3.46,< 5,9.96,< 5,3.62,< 2 nM,5.78,< 3,< 100,1.26,< 100
C[C@H]1OC/C=C/c2cnc(N)c3c(-c4ccc(C(=O)Nc5cc(C(F)(F)F)ccn5)cc4)nn(c23)[C@@H]2CCC[C@H](C2)NC1=O [Example 28],< 5,< 5,< 100,< 5,4.52,< 5,4.03,< 5,1.43,< 2 nM,3.77,< 3,< 100,0.73,100 to 500
Nc1ncc2c3c1c(-c1ccc(C(=O)Nc4cc(C(F)(F)F)ccn4)cc1F)nn3[C@@H]1CCC[C@H](C1)NC(=O)CCC/C=C/2 [Example 7],< 5,< 5,< 100,< 5,2.57,< 5,4.50,< 5,2.03,< 2 nM,4.98,< 3,< 100,,500 to 10000
COc1ccc(F)cc1C(=O)NCc1ccc(-c2nn3c4c(cnc(N)c24)/C=C/CO[C@H](C)C(=O)N[C@@H]2CCC[C@@H]3C2)cc1 [Example 53],< 5,< 5,< 100,< 5,0.89,< 5,1.57,< 5,,10 to 50 nM and < 5 nM,1.26,< 3,< 100,,100 to 500
Nc1ncc2c3c1c(-c1ccc(C(=O)Nc4cc(C(F)(F)F)ccn4)cc1F)nn3[C@@H]1CCC[C@H](C1)NC(=O)CNC/C=C/2 [Example 8],< 5,< 5,100 to 1000,< 5,2.25,< 5,3.30,< 5,1.30,10 to 50 nM and < 5 nM,3.17,< 3,< 100,,500 to 10000
Nc1ncc2c3c1c(-c1ccc(C(=O)Nc4cc(C(F)(F)F)ccn4)cc1)nn3[C@@H]1CCC[C@H](C1)NC(=O)CCCC/C=C/2 [Example 48],< 5,< 5,< 100,< 5,7.37,< 5,4.27,< 5,3.89,< 2 nM,4.18,< 3,< 100,2.01,< 100
Nc1ncc2c3c1c(-c1ccc(C(=O)Nc4cc(C(F)(F)F)ccn4)cc1)nn3[C@@H]1CCC[C@H](C1)NC(=O)CNC[C@@H](O)/C=C/2 [Example 39],< 5,< 5,100 to 1000,< 5,4.22,< 5,2.54,< 5,1.25,< 2 nM,5.96,< 3,< 100,,500 to 10000
CN1C/C=C/c2cnc(N)c3c(-c4ccc(C(=O)Nc5cc(C(F)(F)F)ccn5)cc4)nn(c23)[C@@H]2CCC[C@H](C2)NC(=O)CCC1 [Example 10],< 5,< 5,< 100,< 5,6.77,< 5,6.76,< 5,1.76,< 2 nM,9.46,< 3,< 100,,500 to 10000

# Now from value to compound, other results behind:
IC50 [1] [nM],IC50 [2] [nM],IC50 [3] [nM],Kd (wt-BTK) [nM],Tau (h) wt-BTK (Act) (wt-BTK) [h],Kd (BTK C481S) [nM],Tau (h) BTK C418S (Act) (BTK C481S) [h],Kd (BTK T316A) [nM],Tau (h) BTK T316A (Act) (BTK T316A) [h],Kd (BTK T474I),residence time (BTK T474S) [h],Kd (BTK T474S) [nM],IC50 [4] [nM],Tau (h) BTK T474I (Act) (BTK T474I) [h],SMILES,IC50 (REC-1 T474I cell lines) [nM]
< 5,< 5,< 100,,10.55,,>24,,3.41,,6.88,,< 100,0.90,N#Cc1ccnc(NC(=O)c2ccc(-c3nn4c5c(cnc(N)c35)/C=C/COCCC(=O)N[C@@H]3CCC[C@@H]4C3)cc2)c1 [Example 164],< 100
< 5,< 5,< 100,,3.66,,6.64,,3.81,,> 24,,< 100,3.14,Nc1ncc2c3c1c(-c1ccc(C(=O)Nc4cc(C(F)(F)F)ccn4)cc1)nn3[C@@H]1CC[C@H](C1)NC(=O)CCCCC/C=C/2 [Example 168],< 100
< 5,< 5,< 100,< 5,3.70,< 5,5.25,< 5,3.44,< 2 nM,9.61,< 3,< 100,2.37,Nc1ncc2n3c(nc(-c4ccc(C(=O)Nc5cc(C(F)(F)F)ccn5)cc4)c13)[C@@H]1CCC[C@H](C1)NC(=O)CCCCC/C=C/2 [Example 131],< 100
< 5,< 5,< 100,,2.05,,2.76,,1.58,,3.15,,< 100,2.54,Nc1ncc2c3c1c(-c1ccc(C(=O)Nc4cc(C(F)(F)F)ccn4)cc1)nn3[C@@H]1CC[C@H](C1)NC(=O)CCOC/C=C/2 [Example 170],< 100
< 5,< 5,< 100,< 5,4.48,< 5,2.39,< 5,3.79,< 2 nM,3.79,< 3,< 100,,C[C@@H]1CCn2nc(-c3ccc(C(=O)Nc4cc(C(F)(F)F)ccn4)cc3)c3c(N)ncc(c32)/C=C/CCN2CC[C@H]2C(=O)N1 [Example 68],500 to 10000
